This passage reports inhibition and IC50 results from publication PMC6365106 (Clinical pharmacology and therapeutics, 2016).

In general, inhibition refers to the change of the read-out against control, counted positive when it falls. The term IC50 denotes the concentration needed to halve the response being measured. Read a low IC50 as greater potency in that assay.

Series [1] addresses T1, OAT3 (Homo sapiens, UniProt Q8TCC7).
T1 sequence (Q8TCC7 1-542): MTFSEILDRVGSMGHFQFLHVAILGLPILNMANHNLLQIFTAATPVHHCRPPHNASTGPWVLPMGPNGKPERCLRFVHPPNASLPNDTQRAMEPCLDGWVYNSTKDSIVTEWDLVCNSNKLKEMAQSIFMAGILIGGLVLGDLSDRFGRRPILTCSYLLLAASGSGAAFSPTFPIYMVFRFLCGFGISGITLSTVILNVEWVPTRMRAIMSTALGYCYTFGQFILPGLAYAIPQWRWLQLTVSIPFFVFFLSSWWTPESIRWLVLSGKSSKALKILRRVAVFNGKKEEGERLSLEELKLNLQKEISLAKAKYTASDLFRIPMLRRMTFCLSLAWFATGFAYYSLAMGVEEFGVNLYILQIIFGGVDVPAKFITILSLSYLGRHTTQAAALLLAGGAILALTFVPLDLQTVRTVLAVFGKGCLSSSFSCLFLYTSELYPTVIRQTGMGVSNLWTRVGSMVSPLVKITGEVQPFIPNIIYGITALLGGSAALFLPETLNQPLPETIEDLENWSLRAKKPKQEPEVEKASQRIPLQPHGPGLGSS
As to the kind of experiment: 3H-TDA uptake in OAT3-expressing HEK293 cells, blocked by probenecid. In kind it is cell-based. The settings on record: HEK293, read-out: % inhibition at 30 μM.

The target of series [2] is T2, OAT1 (Homo sapiens, UniProt Q4U2R8).
T2 sequence (Q4U2R8 1-563): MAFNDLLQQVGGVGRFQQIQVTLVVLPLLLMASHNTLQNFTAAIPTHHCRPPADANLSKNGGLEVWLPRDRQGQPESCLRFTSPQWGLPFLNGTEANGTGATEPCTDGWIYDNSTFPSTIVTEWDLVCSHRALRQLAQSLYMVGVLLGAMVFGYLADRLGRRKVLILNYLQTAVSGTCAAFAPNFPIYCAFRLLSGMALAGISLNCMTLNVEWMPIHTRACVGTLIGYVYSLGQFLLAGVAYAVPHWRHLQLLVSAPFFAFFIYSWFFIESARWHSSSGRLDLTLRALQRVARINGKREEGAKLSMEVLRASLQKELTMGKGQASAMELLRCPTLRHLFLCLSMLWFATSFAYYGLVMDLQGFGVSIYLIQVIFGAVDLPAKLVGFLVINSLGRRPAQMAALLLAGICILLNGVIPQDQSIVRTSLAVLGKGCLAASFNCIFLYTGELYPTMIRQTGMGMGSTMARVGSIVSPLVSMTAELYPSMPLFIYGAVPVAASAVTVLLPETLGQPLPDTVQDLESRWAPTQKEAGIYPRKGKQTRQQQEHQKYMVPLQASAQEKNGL
As to the kind of experiment: 3H-TDA uptake in OAT1-expressing HEK293 cells, blocked by probenecid. Format: cell-based. The following applies: HEK293, read-out: % inhibition at 30 μM.

Series [3] has as its target T3, OATP1B1 (Homo sapiens, UniProt Q9Y6L6).
T3 sequence (Q9Y6L6 1-691): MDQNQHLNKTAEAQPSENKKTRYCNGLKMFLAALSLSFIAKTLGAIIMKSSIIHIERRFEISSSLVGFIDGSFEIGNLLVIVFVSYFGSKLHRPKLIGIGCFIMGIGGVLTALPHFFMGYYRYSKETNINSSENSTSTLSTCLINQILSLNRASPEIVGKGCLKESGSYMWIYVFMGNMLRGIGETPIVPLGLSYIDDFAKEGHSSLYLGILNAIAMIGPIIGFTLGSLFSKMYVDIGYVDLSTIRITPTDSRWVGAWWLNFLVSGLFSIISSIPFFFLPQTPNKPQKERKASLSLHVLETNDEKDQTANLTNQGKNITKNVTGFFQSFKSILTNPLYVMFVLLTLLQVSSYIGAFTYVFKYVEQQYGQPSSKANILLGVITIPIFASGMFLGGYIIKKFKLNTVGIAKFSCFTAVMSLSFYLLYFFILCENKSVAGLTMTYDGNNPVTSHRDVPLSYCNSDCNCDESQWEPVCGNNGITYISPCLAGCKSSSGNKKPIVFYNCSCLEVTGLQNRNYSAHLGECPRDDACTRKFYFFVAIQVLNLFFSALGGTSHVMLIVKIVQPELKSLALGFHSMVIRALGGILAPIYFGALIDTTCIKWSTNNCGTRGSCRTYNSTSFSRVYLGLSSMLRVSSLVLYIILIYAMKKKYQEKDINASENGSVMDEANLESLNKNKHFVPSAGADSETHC
As to the kind of experiment: in vitro. The following applies: hek293 cells.

The target in series [4] is T3, OATP1B1. As to the kind of experiment: in vitro. Format: cell-based. The following applies: oatp1b1-transfected cells.
Series [5] concerns the target T2, OAT1. As to the kind of experiment: 3H-HDA uptake in OAT1-expressing HEK293 cells, blocked by probenecid. Format: cell-based. The settings on record: HEK293, read-out: % inhibition at 30 μM.
Series [6] has as its target T3, OATP1B1. As to the kind of experiment: in vitro. The following applies: hek293 cells. This is another data set of the same source.
Series [7] addresses T1, OAT3. As to the kind of experiment: 3H-HDA uptake in OAT3-expressing HEK293 cells, blocked by probenecid. The following applies: HEK293, read-out: % inhibition at 30 μM. In kind it is cell-based.

`O=C(O)CCCCCCCCCCCCC(=O)O` [TDA, tetradecanedioic acid]: the results for the inhibition at 30 µM at OAT3 [1] and at OAT1 [2] were over 70% and over 30%, respectively. The IC50 at OATP1B1 [3] lay within 1600 to 4000 nM.

`C[C@H](CCC(=O)NCC(=O)O)[C@H]1CC[C@H]2[C@@H]3CC[C@@H]4C[C@H](O)CC[C@]4(C)[C@H]3C[C@H](O)[C@]12C` [Glycodeoxycholate]: the inhibition at 30 µM against OATP1B1 [4] was over 70%.

At OATP1B1 [4], `C[C@H](CCC(=O)NCCS(=O)(=O)O)[C@H]1CC[C@H]2[C@@H]3CC[C@@H]4C[C@H](OS(=O)(=O)O)CC[C@]4(C)[C@H]3CC[C@]12C` [TLS, Taurolithocholate 3-sulfate] had an inhibition at 30 µM of over 70%.

As to `O=C(O)CCCCCCCCCCCCCCC(=O)O` [HDA, hexadecanedioic acid], the figures for the inhibition at 30 µM on OAT1 [5] and at OAT3 [7] were over 30% and over 70%, respectively. On OATP1B1 [6], this molecule displayed an IC50 of 1600 to 4000 nM.
